Experimental data published in US20140358576A1, “SYSTEM AND METHOD FOR SURVEILLANCE AND EVALUATION OF SAFETY RISKS ASSOCIATED WITH MEDICAL INTERVENTIONS” (Adverse Events, Inc., priority 2013, published 2014).
Read-outs that look alike come from different tables or passages of the source.

Legend:
[1] = patients, post-approval; cited from earlier work
[2] = for Condition Seriousness: Example 1 component score, up to 8.68 points; for Adverse Event Seriousness / Literature / Outcome / ROR / RxScore: human
[3] = human
[4] = RxScore calculation, Example 2 (FAERS components with event reporter Importance Weighting, no FDA warning/DEA schedule); conditions: for RxScore: Example 2, maximum of 100 total points, Importance Weighting applied; for Condition Seriousness / Adverse Event Seriousness / Outcome: Example 2 component score; for Condition Seriousness: up to 12 points; for Adverse Event Seriousness: up to 27 points; for Outcome: up to 35 points, comorbidity adjusted; for ROR: Example 2 disproportionality measure component score, up to 20 points; for Report Priority: Example 2 report type component score, up to 6 points

SMILES	Condition Seriousness [2]	Adverse Event Seriousness [2]	Literature [2]	Outcome [2]	ROR [2]	RxScore [2]	further results
COCc1c(C(C)C)nc(C(C)C)c(/C=C/[C@@H](O)C[C@@H](O)CC(=O)O)c1-c1ccc(F)cc1 [Baycol]	–	–	–	–	–	–	side effect that became evident after FDA approval [1]: a fatal muscle-wasting syndrome
CC(C)CC(N(C)C)C1(c2ccc(Cl)cc2)CCC1 (stereo not drawn) [Meridia, Sibutramine]	–	–	–	–	–	–	side effect that became evident after FDA approval [1]: severe cardiac complications
CS(=O)(=O)c1ccc(C2=C(c3ccccc3)C(=O)OC2)cc1 [Vioxx, rofecoxib]	–	–	–	–	–	–	side effect that became evident after FDA approval [1]: increased heart attack and stroke rates
CCN(CC)CCNC(=O)c1cc(Cl)c(N)cc1OC [metoclopramide]	7.15	4.46	12.5	15.38	12.97	78.08	–
COc1ccc2c3c1O[C@H]1C(=O)CC[C@@]4(O)[C@@H](C2)N(C)CC[C@]314 [oxycodone]	–	14.17	18.8	14.81	5.51	100.00	disproportionality (ROR) score [3]: 268
CN1CC[C@]23c4c5ccc(O)c4O[C@H]2C(=O)CC[C@@]3(O)[C@H]1C5 [oxymorphone]	–	6.21	18.8	10.33	3.98	77.03	–
O=P(O)(O)C(O)(Cc1cccnc1)P(=O)(O)O [risedronate sodium (Actonel), risedronate sodium]	–	–	–	–	–	–	RxScore [4]: 46.13; Condition Seriousness [4]: 2.40; Adverse Event Seriousness [4]: 8.19; Outcome [4]: 13.15; ROR [4]: 4.82; Report Priority [4]: 3.46
O=P(O)(O)C(O)(Cc1cccnc1)P(=O)(O)O [risedronate sodium (Atelvia), risedronate sodium]	–	–	–	–	–	–	RxScore [4]: 39.63; Condition Seriousness [4]: 2.40; Adverse Event Seriousness [4]: 4.60; Outcome [4]: 12.68; ROR [4]: 5.34; Report Priority [4]: 1.63
CN(CCOc1ccc(CC2SC(=O)NC2=O)cc1)c1ccccn1 (stereo not drawn) [rosiglitazone]	3.77	–	12.5	12.18	5.53	79.48	–
C=CC[C@@H]1/C=C(\C)C[C@H](C)C[C@H](OC)[C@H]2O[C@@](O)(C(=O)C(=O)N3CCCC[C@H]3C(=O)O[C@H](/C(C)=C/[C@@H]3CC[C@@H](O)[C@H](OC)C3)[C@H](C)[C@@H](O)CC1=O)[C@H](C)C[C@@H]2OC [tacrolimus]	3.13	14.77	9.3	15.75	4.09	78.26	–
CCCCC[C@H](O)CC[C@@H]1[C@H]2Cc3cccc(OCC(=O)O)c3C[C@H]2C[C@H]1O [treprostinil]	4.00	–	0.0	–	–	–	–
